Where two headings read alike, the source gives them in different places.
Conditions: for physical state of the salt: room temperature
Procedure: The term “liquid” means that the salt is in a state of matter where the particles are loose and can freely form a distinct surface at the boundaries of the bulk material. The liquid's shape is determined by the container it fills. The liquid can be of low or high viscosity, e.g. in the form of an oil or thick oil.
The liquid salt of the present invention can be prepared by mixing rasagiline and the acid and recovering the salt. […] Efficient mixing can be mediated by the use of a mixer mill. Alternatively, the rasagiline and the acid can be mixed in the presence of a solvent. In this case, either the rasagiline or the acid or the rasagiline and the acid can be suspended or dissolved in the same or different solvents before mixing. For example, first the rasagiline can be dissolved in the solvent and then the acid is added to this solution. Suitable solvents are, e.g., water, tetrahydrofurane, isopropyl alcohol, acetone, diisopropyl ether, and mixtures thereof. Preferred solvents are diisopropyl ether and acetone.
In the following table 1, the reference examples and examples of the present invention are summarized: […]

Molecule | physical state of the salt | also measured
C#CCNC1CCc2ccccc21.O=C1NS(=O)(=O)c2ccccc21 (stereo not shown) [Ref. Ex. 5, Rasagiline Saccharinate] | solid | 
C#CCN[C@@H]1CCc2ccccc21.CC(=O)O [Ref. Ex. 9, Rasagiline Acetate] | crystalline solid | 
C#CCN[C@@H]1CCc2ccccc21 [Ref. Ex. 7, Rasagiline Lauryl Sulphate] | solids | 
C#CCN[C@@H]1CCc2ccccc21 [Ex. 3, Rasagiline Propanoate] |  | physical state of the salt at 0° C. (0° C.): solid; physical state of the salt (listed as Rasagiline propionate): oil
C#CCN[C@@H]1CCc2ccccc21 [Ref. Ex. 8, Rasagiline 4-dodecylbenzenesulfonate] |  | physical state of the salt (listed as rasagiline dodecyl benzene sulphonate): solids
Rasagiline Docusate [Ref. Ex. 6] | solid wax | 

Source: patent US8946482B2, “Salts of rasagiline and pharmaceutical preparations thereof” (Ratiopharm GmbH, priority 2009, dated 2015)
